Values of other authors in patent US10463707B2, “Process for preparing herbal extracts” (MOLEAC PTE LTD., priority 2015, dated 2019).

Conditions: Chen et al. Planta Med 2009

For `C/C=C\c1cc(OC)c(OC)cc1OC` [beta asarone], the “Safe limits for beta asarone consumption” value is listed as 0.115 mg per person per day and the “Safe limits for beta asarone consumption (equivalent)” value (equivalent to the per-person limit) is listed as 0.002 mg/kg body weight/day.
